Tests used:
SETVI (Setaria viridis) = assay: Postemergence herbicidal evaluation; assay type: in vivo, (L.) Beau; conditions: postemergence
Method in brief: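 ~2-wk seedlings; spray 0.0040–1.000 kg/ha in 50/50 acetone/water + 0.5% TWEEN 20, 40 psi nozzle. Greenhouse hold; visual 0–9 rating vs control at 4–5 wk; multiple tests averaged.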

[1] = test system: CYPSE (Cyperus serotinus); assay: Flooded paddy, postemergence weed control; assay type: in vivo, Rottb.; conditions: postemergence weeds, rated 3-4 weeks after treatment
Text: (§1) Results of herbicide evaluation are expressed on a rating scale (0-9). The scale is based upon a visual observation of plant stand, vigor, malformation, size, chlorosis and overall plant appearance as compared with a control.
(§2) Plastic containers containing weeds which are 3 to 5 cm tall and rice seedlings at the 1.5 to 2.5 leaf stage are flooded with water. The water is maintained at 1.5 to 3 cm above the soil surface for the duration of the experiment. Test compounds are applied as aqueous/acetone mixtures 50/50 v/v directly into the flood water to provide the equivalent of about 0.0320 to 0.2500 kg/ha of active ingredient. The treated containers are placed on greenhouse benches and cared for in accordance with conventional greenhouse procedures. Three to four weeks after treatment, the test is terminated and each container is examined and herbicidal effect rated according to the rating system provided in Example 87. The compounds evaluated are identified in Example 87 and plant species used are identified in Example 89.

[2] = test system: SAGPY (Sagittaria pygmaea); assay: Flooded paddy, postemergence weed control; assay type: in vivo, L.; conditions: postemergence weeds, rated 3-4 weeks after treatment
Text: as §1, §2

[3] = test system: MOOVA (Monochoria vaginalis); assay: Flooded paddy, postemergence weed control; assay type: in vivo, Presl.; conditions: postemergence weeds, rated 3-4 weeks after treatment
Text: as §1, §2

ORYSAT (Rice, Tebonnet) [4] = assay: Preemergence herbicidal evaluation; assay type: in vivo, Oryza sativa, (L.) Tebonnet; conditions: rated 4-5 weeks after treatment
[5] = test system: TRZAWR (Wheat, Winter, cv Riband); assay: Postemergence herbicidal evaluation; assay type: in vivo, Triticum aestivum; conditions: postemergence
Method in brief: (§3)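 Seedlings grown about two weeks in flats, sprayed, then kept under standard greenhouse care. Rated visually 4–5 weeks after treatment on a 0–9 scale (stand, vigour, malformation, size, chlorosis, overall appearance) relative to untreated control; repeat tests averaged.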

[6] = test system: ECHORC (Echinochloa oryzoides); assay: Flooded paddy, postemergence weed control; assay type: in vivo, Echinochloa oryzoides (Ard.) Fritsch.; conditions: postemergence weeds, rated 3-4 weeks after treatment
Text: as §1, §2

[7] = test system: ECHCG (Echinochloa crus-galli); assay: Postemergence herbicidal evaluation; assay type: in vivo, (L.) Beau; conditions: postemergence
Method in brief: as §3

GALAP (Galium aparine) = assay: Postemergence herbicidal evaluation; assay type: in vivo; conditions: postemergence
Method in brief: as §3

[8] = test system: ECHORC (Echinochloa oryzoides); assay: Flooded paddy, preemergence weed control; assay type: in vivo, Echinochloa oryzoides (Ard.) Fritsch.; conditions: rated 3-4 weeks after treatment, 0-9 rating scale
Method in brief: (§4)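 Plants were established from seed or propagating organs in flooded silt loam, with the water surface held 1.5 to 3 cm above the soil for the entire experiment. Injury was assessed visually against a control and given a 0-9 score.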

[9] = test system: CYPSE (Cyperus serotinus); assay: Flooded paddy, preemergence weed control; assay type: in vivo, Rottb.; conditions: rated 3-4 weeks after treatment, 0-9 rating scale
Method in brief: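 Seeds or propagules were planted 0.5 cm deep in silt loam and flooded to 1.5–3 cm. Compounds in 50/50 v/v aqueous/acetone were pipetted into the flood water at about 0.0080 to 0.1250 kg/ha. After 3–4 weeks in the greenhouse, effect was rated visually on a 0–9 scale versus untreated control.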

ORYSAT (Rice, Tebonnet) [10] = assay: Flooded paddy, post-transplant and postemergence rice tolerance; assay type: in vivo, Oryza sativa, (L.) Tebonnet; conditions: post-transplant rice, rated 3-4 weeks after treatment
Text: as §1, §2

[11] = test system: SAGPY (Sagittaria pygmaea); assay: Flooded paddy, preemergence weed control; assay type: in vivo, L.; conditions: rated 3-4 weeks after treatment, 0-9 rating scale
Method in brief: as §4

ZEAMX (Corn, Field) = assay: Postemergence herbicidal evaluation; assay type: in vivo, Zea mays, L.; conditions: postemergence
Method in brief: as §3

SMILES | SETVI herbicidal rating (SETVI (Setaria viridis); rate 0.0320 kg/ha) | SETVI herbicidal rating (SETVI (Setaria viridis); rate 0.0620 kg/ha) | herbicide rating (0-9) CYPSE ([1]; 0.0620 kg/ha into flood water) | herbicide rating (0-9) CYPSE ([1]; 0.1250 kg/ha into flood water) | herbicide rating (0-9) SAGPY ([2]; 0.0320 kg/ha into flood water) | herbicide rating (0-9) SAGPY ([2]; 0.0620 kg/ha into flood water) | herbicide rating (0-9) SAGPY ([2]; 0.1250 kg/ha into flood water) | herbicide rating (0-9) MOOVA ([3]; 0.0320 kg/ha into flood water) | herbicide rating (0-9) MOOVA ([3]; 0.0620 kg/ha into flood water) | herbicide rating (0-9) MOOVA ([3]; 0.1250 kg/ha into flood water) | Preemergence herbicidal rating ORYSAT (ORYSAT (Rice, Tebonnet) [4]; Rate 0.0620 kg/ha) | Preemergence herbicidal rating ORYSAT (ORYSAT (Rice, Tebonnet) [4]; Rate 0.1250 kg/ha) | Preemergence herbicidal rating ORYSAT (ORYSAT (Rice, Tebonnet) [4]; Rate 0.2500 kg/ha) | TRZAWR herbicidal rating ([5]; rate 0.0320 kg/ha) | TRZAWR herbicidal rating ([5]; rate 0.0620 kg/ha) | herbicide rating (0-9) ECHORC ([6]; 0.0320 kg/ha into flood water) | herbicide rating (0-9) ECHORC ([6]; 0.0620 kg/ha into flood water) | herbicide rating (0-9) ECHORC ([6]; 0.1250 kg/ha into flood water) | ECHCG herbicidal rating ([7]; rate 0.0320 kg/ha) | ECHCG herbicidal rating ([7]; rate 0.0620 kg/ha) | further results
Cn1c(C(F)(F)F)cc(=O)n(-c2ccc3snc(C4OC(C)(C)C(C)(C)O4)c3c2)c1=O [Compound 56, 1-methyl-3-[3-(4,4,5,5-tetramethyl-1,3-dioxolan-2-yl)-1,2-benzisothiazol-5-yl]-6-(trifluoromethyl)uracil] | 2.0 | 4.0 | 0.0 | 9.0 | 0.0 | 0.0 | 2.0 | 2.0 | 4.0 | 7.0 | 5.0 | 6.0 | 6.0 | 3.5 | 4.5 | 9.0 | 9.0 | 9.0 | 2.0 | 4.0 | GALAP herbicidal rating (GALAP (Galium aparine); rate 0.0320 kg/ha): 3.0; GALAP herbicidal rating (GALAP (Galium aparine); rate 0.0620 kg/ha): 3.0; herbicidal rating, ECHORC ([8]; rate 0.0080 kg/ha): 9.0; herbicidal rating, ECHORC ([8]; rate 0.0320 kg/ha): 9.0; herbicidal rating, ECHORC ([8]; rate 0.1250 kg/ha): 9.0; herbicidal rating, CYPSE ([9]; rate 0.0080 kg/ha): 0.0; herbicidal rating, CYPSE ([9]; rate 0.0320 kg/ha): 5.5; herbicidal rating, CYPSE ([9]; rate 0.1250 kg/ha): 9.0; herbicide rating (0-9) ORYSAT (rice tolerance) (ORYSAT (Rice, Tebonnet) [10]; 0.0320 kg/ha into flood water): 7.0; herbicide rating (0-9) ORYSAT (rice tolerance) (ORYSAT (Rice, Tebonnet) [10]; 0.0620 kg/ha into flood water): 7.0; herbicide rating (0-9) ORYSAT (rice tolerance) (ORYSAT (Rice, Tebonnet) [10]; 0.1250 kg/ha into flood water): 9.0; herbicidal rating, SAGPY ([11]; rate 0.0080 kg/ha): 0.0; herbicidal rating, SAGPY ([11]; rate 0.0320 kg/ha): 0.0; herbicidal rating, SAGPY ([11]; rate 0.1250 kg/ha): 6.3; ZEAMX herbicidal rating (ZEAMX (Corn, Field); rate 0.0320 kg/ha): 5.0; ZEAMX herbicidal rating (ZEAMX (Corn, Field); rate 0.0620 kg/ha): 5.5
Cn1c(C(F)(F)F)cc(=O)n(-c2ccc3snc(-c4sccc4Cl)c3c2)c1=O [Compound 52, 3-[3-(3-chloro-2-thienyl)-1,2-benzisothiazol-5-yl]-1-methyl-6-(trifluoromethyl)uracil] | 9.0 | 9.0 | 7.0 | 8.0 | 0.0 | 0.0 | 4.0 | 2.0 | 2.0 | 9.0 | 1.0 | 1.5 | 3.5 | 4.0 | 4.0 | 6.0 | 9.0 | 8.0 | 0.0 | 1.0 | SETVI herbicidal rating (SETVI (Setaria viridis); rate 0.1250 kg/ha): 9.0; TRZAWR herbicidal rating ([5]; rate 0.1250 kg/ha): 5.0; ECHCG herbicidal rating ([7]; rate 0.1250 kg/ha): 5.0; GALAP herbicidal rating (GALAP (Galium aparine); rate 0.0320 kg/ha): 5.0; GALAP herbicidal rating (GALAP (Galium aparine); rate 0.0620 kg/ha): 3.0; GALAP herbicidal rating (GALAP (Galium aparine); rate 0.1250 kg/ha): 7.0; herbicidal rating, ECHORC ([8]; rate 0.0080 kg/ha): 8.5; herbicidal rating, ECHORC ([8]; rate 0.0320 kg/ha): 9.0; herbicidal rating, ECHORC ([8]; rate 0.1250 kg/ha): 9.0; herbicidal rating, CYPSE ([9]; rate 0.0320 kg/ha): 9.0; herbicidal rating, CYPSE ([9]; rate 0.1250 kg/ha): 9.0; herbicide rating (0-9) ORYSAT (rice tolerance) (ORYSAT (Rice, Tebonnet) [10]; 0.0320 kg/ha into flood water): 4.0; herbicide rating (0-9) ORYSAT (rice tolerance) (ORYSAT (Rice, Tebonnet) [10]; 0.0620 kg/ha into flood water): 6.0; herbicide rating (0-9) ORYSAT (rice tolerance) (ORYSAT (Rice, Tebonnet) [10]; 0.1250 kg/ha into flood water): 7.0; herbicidal rating, SAGPY ([11]; rate 0.0080 kg/ha): 0.0; herbicidal rating, SAGPY ([11]; rate 0.0320 kg/ha): 3.7; herbicidal rating, SAGPY ([11]; rate 0.1250 kg/ha): 7.7; ZEAMX herbicidal rating (ZEAMX (Corn, Field); rate 0.0320 kg/ha): 3.5; ZEAMX herbicidal rating (ZEAMX (Corn, Field); rate 0.0620 kg/ha): 3.5; ZEAMX herbicidal rating (ZEAMX (Corn, Field); rate 0.1250 kg/ha): 5.0

Reference: US6706663B2, “Herbicidal 3-heterocyclic substituted benzisothiazole and benzisoxazole compounds” (Wyeth, priority 2000, dated 2004)
